Measurements published in patent publication US6136825A, “Sulfonamide compounds having 5-HT receptor activity” (Knoll Aktiengesellschaft, priority 1996, dated 2000).
Where a name gives a salt, the structure may show the parent alone.

Assays:
5-HT1A = target: T1, 5-HT1A (Rattus norvegicus, UniProt P19327); assay: inhibition of tritiated ligand ([3H]8-OH-DPAT) binding to 5-HT1A receptors, rat hippocampal tissue; design: species or system male Charles River CD rats; conditions: for Ki: 25° C., 30 minutes, pH 7.7; for inhibition at 1 µM: at 10^-6 M, read-out: % displacement of specific binding, 5-HT1A
T1 construct: Hippocampal tissue from the brains of male Charles River CD rats; from tissue; host or cells: rat hippocampus (male Charles River CD rats), crude membrane pellet
T1 sequence (P19327 1-422): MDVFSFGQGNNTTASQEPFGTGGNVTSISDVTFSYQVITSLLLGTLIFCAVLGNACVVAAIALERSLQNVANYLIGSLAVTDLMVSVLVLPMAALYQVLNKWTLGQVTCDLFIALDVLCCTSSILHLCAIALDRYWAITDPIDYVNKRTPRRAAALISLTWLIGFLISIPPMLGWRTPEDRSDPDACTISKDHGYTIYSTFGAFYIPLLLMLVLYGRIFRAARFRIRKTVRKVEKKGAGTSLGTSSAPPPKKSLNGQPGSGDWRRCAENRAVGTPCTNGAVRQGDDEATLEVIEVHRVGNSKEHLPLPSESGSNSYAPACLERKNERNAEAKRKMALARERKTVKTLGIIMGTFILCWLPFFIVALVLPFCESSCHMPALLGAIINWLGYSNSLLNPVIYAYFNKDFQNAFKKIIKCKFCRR
Procedure: Hippocampal tissue from the brains of male Charles River CD rats weighing between 150-250 g were homogenised in ice-cold 50 mM Tris-HCl buffer (pH 7.7) when measured at 25° C., 1:40 w/v) and centrifuged at 30,000 g at 4° C. for 10 minutes. The pellet was rehomogenised in the same buffer, incubated at 37° C. for 10 minutes and centrifuged at 30,000 g at 4° C. for 10 minutes. The final pellet was resuspended in 50 mM Tris-HCl buffer (pH 7.7) containing 4 mM CaCl2, 0.1% L-ascorbic acid and 10 μM pargyline hydrochloride (equivalent to 6.25 mg wet weight of tissue/ml) and used immediately in the binding assay. Aliquots (400 μl; equivalent to 2.5 mg wet weight of tissue/tube) of this suspension were added to tubes containing the ligand (50 μl; 2 nM) and distilled water (50 μl; total binding) or 5-HT (50 μl; 10 μM; non-specific binding) or test compound (50 μl; at a single concentration of 10^-6 M or at 10 concentrations ranging from 10^-11 -10^-3 M). The ligand was [^3 H]8-hydroxy-2-(dipropylamino)tetralin ([^3 H]8-OH-DPAT) and the mixture was incubated at 25° C. for 30 minutes before the incubation was terminated by rapid filtration.
The filters were washed with ice-cold Tris-HCl buffer and dried. The filters were punched out into vials, scintillation fluid added and radioactivity determined by liquid scintillation counting. The percentage displacement of specific binding of the tritiated ligand was calculated for the single concentration (10^-6 M) of test compound. Displacement curves were then produced for those compounds which displaced ≥50% of specific binding of the tritiated ligand at 10^-6 M using a range of concentrations of the compound. The concentration which gave 50% inhibition of specific binding (IC50) was obtained from the curve. The inhibition coefficient Ki was then calculated using the formula [formula] in which [ligand] is the concentration of the tritiated ligand used and KD Is the equilibrium dissociation constant for the ligand.

[1] = target: T2, D2-like dopamine receptors (Rattus norvegicus, UniProt P61169); assay: inhibition of tritiated (S)-sulpiride binding to D2-like dopamine receptors, rat striatal tissue; design: species or system male Charles River CD rats; conditions: for Ki: 4° C., 40 minutes, pH 7.7; for inhibition at 1 µM: at 10^-6 M, read-out: % displacement of specific binding, D2-like
T2 construct: Striatal tissue from the brains of male Charles River CD rats; from tissue; host or cells: rat striatum (male Charles River CD rats), crude membrane pellet
T2 sequence (P61169 whole entry): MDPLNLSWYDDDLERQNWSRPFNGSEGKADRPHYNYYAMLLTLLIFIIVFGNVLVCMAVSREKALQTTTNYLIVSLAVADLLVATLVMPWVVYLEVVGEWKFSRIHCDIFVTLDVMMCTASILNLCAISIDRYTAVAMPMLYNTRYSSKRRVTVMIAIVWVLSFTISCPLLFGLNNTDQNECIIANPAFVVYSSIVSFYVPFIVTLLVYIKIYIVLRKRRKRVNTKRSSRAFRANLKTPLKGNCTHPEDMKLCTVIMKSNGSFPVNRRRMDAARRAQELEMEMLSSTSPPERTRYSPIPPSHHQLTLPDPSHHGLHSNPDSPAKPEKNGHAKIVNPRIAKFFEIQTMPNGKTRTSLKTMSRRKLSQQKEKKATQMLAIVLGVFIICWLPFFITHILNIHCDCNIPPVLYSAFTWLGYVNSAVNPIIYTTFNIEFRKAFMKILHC
Procedure: Striatal tissue from the brains of male Charles River CD rats weighing between 140-250 g were homogenised in ice-cold 50 mM Tris-HCl buffer (pH 7.7 when measured at 25° C.) and centrifuged at 40,000 g for 10 minutes. The pellet was resuspended in Tris salts buffer (50 mM Tris-HCl buffer containing 120 mM NaCl, 5 mM KCl, 2 mM CaCl2 and 1 mM MgCl2 with the addition of 6 mM ascorbic acid; pH 7.7 when measured at 25° C.), and again centrifuged at 40,000 g for 10 minutes. The final pellet was stored at -80° C. Before each test the pellet was resuspended in Tris salts buffer (equivalent to 2 mg wet weight of tissue/ml). Aliquots (720 μl; equivalent to 1.44 mg wet weight of tissue/tube) of this suspension were then added to tubes containing the ligand (40 μl; 1 nM) and Tris salts buffer (40 μl; total binding) or spiroperidol (40 μl; 10 nM; non-specific binding) or test compound (40 μl; at a single concentration of 10^-6 M or at 6 concentrations ranging from 10^-11 -10^-4 M). The ligand was tritiated (S)-sulpiride and the mixture was incubated at 4° C. for 40 minutes before the incubation was terminated by rapid filtration.
The filters were washed with ice-cold Tris-HCl buffer and dried. The filters were punched out in to vials, scintillation fluid added and were left for about 20 hours before being counted by scintillation spectrophotometry. The percentage displacement of specific binding of the tritiated ligand was calculated for the single concentration (10^-6 M) of test compound. Displacement curves were then produced over a range of concentrations for those compounds which displaced ≥50% of specific binding of the tritiated ligand at 10^-6 M. The concentration which gave a 50% inhibition of specific binding (IC50) was obtained from the curve. The inhibition coefficient Ki was then calculated using the formula [formula] in which [ligand] is the concentration of the tritiated ligand used and KD is the equilibrium dissociation constant for the ligand.

SMILES	Ki (5-HT1A) [nM]	Ki [1] [nM]	inhibition at 1 µM (5-HT1A) [%]	inhibition at 1 µM [1] [%]
O=S(=O)(NCC1CCN(C[C@H]2COc3ccc(Cl)cc3O2)CC1)c1ccc(F)c(F)c1F [Example 38, (S)-N-{[1-(7-Chloro-1,4-benzodioxan-2-ylmethyl)-4-piperidyl]methyl}-2,3,4-trifluorobenzenesulphonamide]		330	95	
O=S(=O)(NCC1CCN(C[C@H]2COc3ccc(Cl)cc3O2)CC1)c1c(F)c(Br)cc(F)c1Br [Example 39, (S)-2,5-Dibromo-N-{[1-(7-chloro-1,4-benzodioxan-2-ylmethyl)-4-piperidyl]methyl}-3,6-difluorobenzenesulphonamide]		438	98	
O=S(=O)(NCC1CCN(C[C@H]2COc3ccc(Cl)cc3O2)CC1)c1ccc(OC(F)(F)F)cc1 [Example 29, (S)-N-{[1-(7-Chloro-1,4-benzodioxan-2-ylmethyl)-4-piperidyl]methyl}-4-trifluoromethoxybenzenesulphonamide]		357	67	
O=S(=O)(NCC1CCN(C[C@H]2COc3ccc(Br)cc3O2)CC1)c1ccccc1F [Example 45, (S)-(-)-N-{[1-(7-Bromo-1,4-benzodioxan-2-ylmethyl)-4-piperidyl]methyl}-2-fluorobenzenesulphonamide]			97	109
Cc1c([N+](=O)[O-])cc(S(=O)(=O)NCC2CCN(C[C@H]3COc4ccc(Cl)cc4O3)CC2)cc1[N+](=O)[O-] [Example 26, (S)-N-{[1-(7-Chloro-1,4-benzodioxan-2-ylmethyl)-4-piperidyl]methyl}-4-methyl-3,5-dinitrobenzenesulphonamide]			88	87
O=[N+]([O-])c1ccc(S(=O)(=O)NCC2CCN(C[C@H]3COc4ccc(Cl)cc4O3)CC2)c([N+](=O)[O-])c1 [Example 15, (S)-N-{[1-(7-Chloro-1,4-benzodioxan-2-ylmethyl)-4-piperidyl]methyl}-2,4-dinitrobenzenesulphonamide]		212	82	
O=S(=O)(NCC1CCN(C[C@H]2COc3ccc(Cl)cc3O2)CC1)c1ccc(F)c(Cl)c1 [Example 42, (S)-(-)-3-Chloro-N-{[1-(7-chloro-1,4-benzodioxan-2-ylmethyl)-4-piperidyl]methyl}-4-fluoro-benzenesulphonamide]			80	84
O=S(=O)(NCC1CCN(C[C@H]2COc3ccc(Cl)cc3O2)CC1)c1cccc(C(F)(F)F)c1 [Example 28, (S)-N-{[1-(7-Chloro-1,4-benzodioxan-2-ylmethyl)-4-piperidyl]methyl}-3-trifluoromethylbenzenesulphonamide]		352	68	
CCN(CC)c1cccc2c(S(=O)(=O)NCC3CCN(C[C@H]4COc5ccc(Cl)cc5O4)CC3)cccc12 [Example 23, (S)-N-{[1-(7-Chloro-1,4-benzodioxan-2-ylmethyl)-4-piperidyl]methyl}-5-(diethylamino)naphthalene-1-sulphonamide]			82	83

Further compounds by falling Ki [1], results first:

Ki (5-HT1A) [nM]	Ki [1] [nM]	inhibition at 1 µM (5-HT1A) [%]	inhibition at 1 µM [1] [%]	SMILES
	328	81		Cc1ccc(F)cc1S(=O)(=O)NCC1CCN(C[C@H]2COc3ccc(Cl)cc3O2)CC1 [Example 35, (S)-N-{[1-(7-Chloro-1,4-benzodioxan-2-ylmethyl)-4-piperidyl]methyl}-5-fluoro-2-methylbenzenesulphonamide]
	317	59		Cc1c(C)c(C)c(S(=O)(=O)NCC2CCN(C[C@H]3COc4ccc(Cl)cc4O3)CC2)c(C)c1C [Example 22, (S)-N-{[1-(7-Chloro-1,4-benzodioxan-2-ylmethyl)-4-piperidyl]methyl}-2,3,4,5,6-pentamethylbenzenesulphonamide]
20	102			O=S(=O)(NCC1CCN(C[C@H]2COc3ccc(Br)cc3O2)CC1)c1cccc(Cl)c1Cl [Example 13, (S)-(-)-N-{[1-(7-bromo-1,4-benzodioxan-2-ylmethyl)-4-piperidyl]methyl}-2,3-dichlorobenzensulphonamide]
	85	87		O=[N+]([O-])c1ccccc1S(=O)(=O)NCC1CCN(C[C@H]2COc3ccc(Cl)cc3O2)CC1 [Example 37, (S)-N-{[1-(7-Chloro-1,4-benzodioxan-2-ylmethyl)-4-piperidyl]methyl}-2-nitro-benzenesulphonamide]
1.5	73			O=S(=O)(NCC1CCN(C[C@H]2COc3ccc(Cl)cc3O2)CC1)c1cccc(Cl)c1Cl [Example 43, (S)-(-)-2,3-Dichloro-N-{[1-(7-chloro-1,4-benzodioxan-2-ylmethyl)-4-piperidyl]methyl}benzenesulphonamide]
20	40.2			COc1ccc(S(=O)(=O)NCC2CCN(C[C@H]3COc4ccc(Cl)cc4O3)CC2)cc1OC [Example 6, (S)-(-)-N-{[1-(7-chloro-1,4-benzodioxan-2-ylmethyl)-4-piperidyl]methyl}-3,4-dimethoxybenzenesulphonamide]
45	37.2			CC(=O)Nc1ccc(S(=O)(=O)NCC2CCN(C[C@H]3COc4ccc(Cl)cc4O3)CC2)cc1 [Example 8, (S)-(-)-4-acetamido-N-{[1-(7-chloro-1,4-benzodioxan-2-ylmethyl)-4-piperidyl]methyl}benzenesulphonamide]
86.8	29.4			O=S(=O)(NCC1CCN(C[C@H]2COc3ccc(Cl)cc3O2)CC1)c1ccccn1 [Example 1, (S)-(-)-N-{[1-(7-chloro-1,4-benzodioxan-2-ylmethyl)-4-piperidyl]methyl}pyridine-2-sulphonamide monohydrochloride 0.6 hydrate]
30	28.7			O=S(=O)(NCC1CCN(C[C@H]2COc3ccc(C(F)(F)F)cc3O2)CC1)c1ccccn1 [Example 12, (S)-(-)-N-J[1-(7-trifluoromethyl-1,4-benzodioxan-2-ylmethyl)-4-piperidyl]methyl,pyridine-2-sulphonamide]
31.6	28			O=S(=O)(NCC1CCN(C[C@H]2COc3ccc(Cl)cc3O2)CC1)c1cccnc1 [Example 3, (S)-(-)-N-{[1-(7-chloro-1,4-benzodioxan-2-ylmethyl)-4-piperidyl]methyl}pyridine-3-sulphonamide 0.8 hydrate]
11.4	27.9			O=S(=O)(c1ccccn1)N1CCC(CNC[C@H]2COc3ccc(Cl)cc3O2)CC1 [Example 2, (S)-(-)-4-[N-(7-chloro-1,4-benzodioxan-2-ylmethyl)aminomethyl]-1-(2-pyridinesulphonyl)piperidine 0.8 hydrate]
